Results on 22 molecules are retold here after ChEMBL document CHEMBL1152023, “Phenyl pyrrolidine analogues as potent nicotinic acetylcholine receptor (nAChR) ligands” (Bioorg Med Chem Lett, 1995).

In this assay the target is Neuronal acetylcholine receptor. Description: Ability to displace [3H](-)-cytisine from nicotinic acetylcholine receptor (nAChR) in a whole rat brain preparation.
A word on the Ki: it is a dissociation constant, usually derived from enzyme kinetics or from competition with a known ligand. As to `Cc1cccc(C2CCCN2C)c1` (configuration not stated), the Ki is 719 nM.

Molecule `CN1CCCC1c1ccc(F)cc1` (configuration not stated) returned an inhibition constant Ki of 207 nM. In the case of `COc1ccccc1C1CCCN1C` (configuration not stated), the inhibitory constant (Ki) was over 10000 nM. The same measure for `CN1CCCC1c1ccc(Br)cc1` (configuration not stated): 75 nM. With `COc1ccc(C2CCCN2C)cc1OC` (configuration not stated), the inhibition constant Ki stood at 9700 nM.

As for `Cc1ccc(C2CCCN2C)cc1` (configuration not stated), the inhibition constant (Ki) worked out at 1330 nM. `COc1cccc(C2CCCN2C)c1` (configuration not stated): the affinity, expressed as Ki, was 597 nM. With `CN1CCCC1c1ccc(C(F)(F)F)cc1` (configuration not stated) the figure was 931 nM; with `COc1cc2c(cc1O)CCN1CC=C3C=C[C@H](OC)C[C@]321` [ERYSODINE], 5 nM. The same measure for `CN1CCCC1c1ccc2c(c1)OCO2` (configuration not stated): 46 nM; for `CN1CCCC1c1ccc2c(c1)OCCO2` (configuration not stated): 1220 nM. In turn, `COc1ccc(C2CCCN2C)cc1` (configuration not stated) gave a Ki of 707 nM.

Regarding `CN1CCCC1c1ccc(F)c(F)c1` (configuration not stated), the inhibition constant Ki came out at 420 nM. In the case of `c1ccc(C2CCCN2)cc1` (configuration not stated), affinity was put at a Ki of 8700 nM. `COc1cc(C2CCCN2C)ccc1O` (configuration not stated) displayed an inhibition constant Ki of 8250 nM.

`CN1CCCC1c1cccc(Cl)c1` (configuration not stated): the Ki worked out at 227 nM. The same measure for `CN1CCCC1c1cccc(F)c1` (configuration not stated): 399 nM; for `Fc1cccc(C2=NCCC2)c1`: over 10000 nM; for `CN1CCCC1c1ccc(Cl)cc1` (configuration not stated): 164 nM. With `CN1CCCC1c1ccc(Cl)c(Cl)c1` (configuration not stated) the figure was 68 nM; with `Cc1ccccc1C1CCCN1C` (configuration not stated), 9000 nM; with `Clc1ccc(C2=NCCC2)cc1`, over 10000 nM.
